# Values of other authors as cited in patent US20240100069A1, “Methods and Compositions for Treating Amyotrophic Lateral Sclerosis” (Amylyx Pharmaceuticals, Inc., priority 2022, published 2024).
# Legend:
# [1] = test system: G393A SODI mouse model of ALS
# [2] = in vivo
# CYP 1A2 = biological target: T1, CYP 1A2 (Homo sapiens, UniProt P05177); settings: at 20 times the intended clinical concentration (Cmax)
# T1 sequence (P05177 1-516): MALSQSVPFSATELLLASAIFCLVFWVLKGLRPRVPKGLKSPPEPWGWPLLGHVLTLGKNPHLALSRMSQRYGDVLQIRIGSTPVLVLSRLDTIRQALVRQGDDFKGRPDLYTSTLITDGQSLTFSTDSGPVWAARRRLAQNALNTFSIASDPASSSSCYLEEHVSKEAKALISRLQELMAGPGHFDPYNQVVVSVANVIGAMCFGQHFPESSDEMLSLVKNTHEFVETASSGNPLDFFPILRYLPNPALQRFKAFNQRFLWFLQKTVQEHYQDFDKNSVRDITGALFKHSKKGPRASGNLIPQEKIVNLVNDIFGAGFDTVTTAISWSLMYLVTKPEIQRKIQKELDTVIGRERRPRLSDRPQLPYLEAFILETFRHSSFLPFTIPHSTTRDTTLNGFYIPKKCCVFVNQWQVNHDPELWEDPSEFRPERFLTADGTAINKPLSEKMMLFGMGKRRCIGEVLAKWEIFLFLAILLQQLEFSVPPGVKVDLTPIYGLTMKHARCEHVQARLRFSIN
# CYP 2D6 = CYP 2D6 (Homo sapiens, UniProt P10635); settings: at 20 times the intended clinical concentration (Cmax)
# CYP 2D6, sequence (P10635 whole entry): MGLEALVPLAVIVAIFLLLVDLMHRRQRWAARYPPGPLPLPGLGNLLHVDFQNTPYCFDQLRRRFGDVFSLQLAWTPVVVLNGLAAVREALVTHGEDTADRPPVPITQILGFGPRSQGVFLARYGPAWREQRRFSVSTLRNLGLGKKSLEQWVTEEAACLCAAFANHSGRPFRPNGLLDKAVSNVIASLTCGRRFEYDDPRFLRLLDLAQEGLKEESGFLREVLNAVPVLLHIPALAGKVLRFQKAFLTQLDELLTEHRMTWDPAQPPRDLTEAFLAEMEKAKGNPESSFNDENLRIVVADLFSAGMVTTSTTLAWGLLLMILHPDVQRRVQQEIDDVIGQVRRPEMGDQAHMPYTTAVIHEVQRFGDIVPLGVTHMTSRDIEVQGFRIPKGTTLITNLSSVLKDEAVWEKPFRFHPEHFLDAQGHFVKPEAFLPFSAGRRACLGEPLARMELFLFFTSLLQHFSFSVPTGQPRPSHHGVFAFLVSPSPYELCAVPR
compound,measurement,setting,value
"O=C(O)CCCc1ccccc1 [Phenylbutyrate, sodium phenylbutyrate]",survival in in vivo models,[1],increase survival
"C[C@H](CCC(=O)NCCS(=O)(=O)O)[C@H]1CC[C@H]2[C@@H]3[C@@H](O)C[C@@H]4C[C@H](O)CC[C@]4(C)[C@H]3CC[C@]12C [TURSO, tauroursodeoxycholic acid]","most common adverse reactions reported (abdominal discomfort, abdominal pain, diarrhea, nausea, pruritus, rash), frequency",[2],≥ 1%
Phenylacetylacetate,inhibition of CYP 1A2,CYP 1A2,inhibitory
same,inhibition of CYP 2D6,CYP 2D6,inhibitory
